Laboratory results as given in ChEMBL document CHEMBL4312011, “Synthesis and biological evaluation of triterpenoid thiazoles derived from betulonic acid, dihydrobetulonic acid, and ursonic acid” (Eur J Med Chem, 2020).

Legend:
[1] = tested on: MRC5; test: Cytotoxicity against human MRC5 cells incubated for 72 hrs by MTS assay; format: cell-based; conditions: MRC5, 72 h
[2] = tested on: K562; test: Cytotoxicity against human K562 cells incubated for 72 hrs by MTS assay; format: functional, cell-based; conditions: K562, 72 h
[3] = Cytotoxicity against human CEM-DNR-bulk cells incubated for 72 hrs by MTS assay; format: functional, cell-based
[4] = tested on: U2OS; test: Cytotoxicity against human U2OS cells incubated for 72 hrs by MTS assay; format: functional, cell-based
[5] = tested on: HCT-116; test: Cytotoxicity against human HCT116 cells incubated for 72 hrs by MTS assay; format: functional, cell-based; conditions: HCT-116, 72 h
[6] = tested on: A549; test: Cytotoxicity against human A549 cells incubated for 72 hrs by MTS assay; format: functional, cell-based; conditions: A549, 72 h
[7] = tested on: BJ; test: Cytotoxicity against human BJ cells incubated for 72 hrs by MTS assay; format: cell-based
[8] = tested on: HCT-116; test: Cytotoxicity against p53 knockout human HCT116 cells incubated for 72 hrs by MTS assay; format: functional, cell-based; conditions: HCT-116, 72 h
[9] = Cytotoxicity against human K562-TAX cells incubated for 72 hrs by MTS assay; format: functional, cell-based
[10] = tested on: CCRF-CEM; test: Cytotoxicity against human CCRF-CEM cells incubated for 72 hrs by MTS assay; format: functional, cell-based

SMILES | IC50 [1] [µM] | IC50 [2] [µM] | IC50 [3] [µM] | IC50 [4] [µM] | IC50 [5] [µM] | IC50 [6] [µM] | IC50 [7] [µM] | IC50 [8] [µM] | IC50 [9] [µM] | IC50 [10] [µM]
C=C(C)[C@@H]1CC[C@]2(C(=O)O)CC[C@]3(C)[C@H](CC[C@@H]4[C@@]5(C)CCC(=O)C(C)(C)[C@@H]5CC[C@]43C)[C@@H]12 [BETUNOLIC ACID] | 29.5 | 13.6 | 11.2 | 38 | 38.1 | 40 | 39.5 | 49.4 | 14.9 | 8.4
C[C@H]1[C@H](C)CC[C@]2(C(=O)O)CC[C@]3(C)C(=CC[C@@H]4[C@@]5(C)Cc6sc(N7CCCCC7)nc6C(C)(C)[C@@H]5CC[C@]43C)[C@H]12 | > 50 | > 50 | > 50 | > 50 | > 50 | > 50 | > 50 | > 50 | > 50 | 22
C=C(C)[C@@H]1CC[C@]2(C(=O)O)CC[C@]3(C)[C@H](CC[C@@H]4[C@@]5(C)Cc6sc(N7CCCC7)nc6C(C)(C)[C@@H]5CC[C@]43C)[C@@H]12 | > 50 | > 50 | > 50 | > 50 | > 50 | > 50 | > 50 | > 50 | 22.9 | 7
C[C@H]1[C@H](C)CC[C@]2(C(=O)O)CC[C@]3(C)C(=CC[C@@H]4[C@@]5(C)Cc6sc(N7CCN(C)CC7)nc6C(C)(C)[C@@H]5CC[C@]43C)[C@H]12 | > 50 | > 50 | > 50 | > 50 | > 50 | > 50 | > 50 | > 50 | > 50 | 47.6
C=C(C)[C@@H]1CC[C@]2(C(=O)O)CC[C@]3(C)[C@H](CC[C@@H]4[C@@]5(C)Cc6sc(N(CC)CC)nc6C(C)(C)[C@@H]5CC[C@]43C)[C@@H]12 | 23.3 | 29.5 | > 50 | > 50 | > 50 | > 50 | > 50 | 31.6 | 46.8 | 8.5
CC1(C)CC[C@]2(C(=O)O)CC[C@]3(C)C(=CC[C@@H]4[C@@]5(C)CCC(=O)C(C)(C)[C@@H]5CC[C@]43C)[C@@H]2C1 [OLEANONIC ACID] | > 50 | > 50 | 17.4 | 48.5 | 45.1 | 49.5 | > 50 | > 50 | 21.5 | 15.1
C=C(C)[C@@H]1CC[C@]2(C(=O)O)CC[C@]3(C)[C@H](CC[C@@H]4[C@@]5(C)CC(Br)C(=O)C(C)(C)[C@@H]5CC[C@]43C)[C@@H]12 (stereo not given in full) | 20.4 | 35.5 | 17.9 | 23.4 | 31.1 | 24 | 33.5 | 32.7 | 23.5 | 3
C[C@H]1[C@H](C)CC[C@]2(C(=O)O)CC[C@]3(C)C(=CC[C@@H]4[C@@]5(C)CCC(=O)C(C)(C)[C@@H]5CC[C@]43C)[C@H]12 [URSONIC ACID] | > 50 | > 50 | 34 | > 50 | 49.7 | > 50 | > 50 | > 50 | 35.5 | 10.4
CC(C)[C@@H]1CC[C@]2(C(=O)O)CC[C@]3(C)[C@H](CC[C@@H]4[C@@]5(C)CC(Br)C(=O)C(C)(C)[C@@H]5CC[C@]43C)[C@@H]12 (stereo not given in full) | 8 | 0.7 | 15.6 | 10 | 1 | 15.2 | 21.8 | 5.2 | 5.1 | 3.1
CCN(CC)c1nc2c(s1)C[C@]1(C)[C@H]3CC[C@@H]4[C@H]5[C@H](C(C)C)CC[C@]5(C(=O)O)CC[C@@]4(C)[C@]3(C)CC[C@H]1C2(C)C | > 50 | 16.3 | > 50 | 45.8 | > 50 | > 50 | > 50 | > 50 | > 50 | 19.7
